Source: the supplement of paper PMC8960247
Counter-ions that a name gives are not always drawn. ± gives the standard error.

Tests used:
[1] = system: 621-102 (TSC2-deficient); assay: relative viability vs DMSO; higher = less cytotoxic; conditions: serum: 10% FBS, 72 h
[2] = system: 621-103 (TSC2-rescued); assay: as above; conditions: serum: 10% FBS, 72 h
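Note: immortalized renal angiomyolipoma cells stably carrying empty vector or TSC2, dosed in 384-well plates in DMEM, viability normalized to vehicle-treated wells within each plate.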

| Compound | relative viability ([1]; 0.0001 µM) [%] | relative viability ([1]; 0.001 µM) [%] | relative viability ([1]; 0.01 µM) [%] | relative viability ([1]; 0.1 µM) [%] | relative viability ([1]; 1 µM) [%] | relative viability ([1]; 10 µM) [%] | relative viability ([2]; 0.0001 µM) [%] | relative viability ([2]; 0.001 µM) [%] | relative viability ([2]; 0.01 µM) [%] | relative viability ([2]; 0.1 µM) [%] | relative viability ([2]; 1 µM) [%] | relative viability ([2]; 10 µM) [%] |
| --- | --- | --- | --- | --- | --- | --- | --- | --- | --- | --- | --- | --- |
| CC(C)C[C@@H](C=O)NC(=O)[C@H](CC(C)C)NC(=O)[C@H](CC(C)C)NC(=O)OCc1ccccc1 [MG-132] | 104 ± 2.3 | 102 ± 4 | 99.9 ± 1.6 | 94.63 ± 0.69 | 4.41 ± 0.73 | 1.52 ± 0.059 | 99.8 ± 3.3 | 93.4 ± 2.7 | 95.3 ± 4.2 | 53.7 ± 8.3 | 2 ± 0.3 | 1.393 ± 0.0089 |
| FC(F)(F)c1ccc(/C=C/c2nc(COc3ccc(CCCCn4ccnn4)cc3)co2)cc1 [Mubritinib (TAK 165)] | 106 ± 3.2 | 105.09 ± 0.037 | 97.5 ± 1.1 | 103 ± 2.6 | 107 ± 1.2 | 110.2 ± 1.1 | 112 ± 3.3 | 106 ± 2 | 104 ± 2.1 | 112 ± 1.4 | 107 ± 2.1 | 115 ± 1.7 |
| CCOC(=O)C1=C(COCCN)NC(C)=C(C(=O)OC)C1c1ccccc1Cl (stereo not given) [Amlodipine besylate] | 65.2 ± 8.7 | 72.3 ± 1.8 | 76.1 ± 6.9 | 71.3 ± 8.8 | 65.1 ± 9.1 | 53.6 ± 2.7 | 96.2 ± 2.2 | 91.1 ± 4.7 | 99.4 ± 2.6 | 102 ± 9 | 94.5 ± 5.2 | 57.2 ± 5 |
| Cc1cc(Nc2nc(N[C@@H](C)c3ncc(F)cn3)ncc2Cl)[nH]n1 [AZD1480] | 104 ± 2.1 | 101.7 ± 0.92 | 104 ± 1.7 | 100.8 ± 0.59 | 103 ± 3.8 | 87.7 ± 1.2 | 97.89 ± 0.31 | 89.6 ± 1.1 | 86.7 ± 3.9 | 92.2 ± 2.8 | 89.4 ± 2.6 | 53.6 ± 1.4 |
| CC[C@]1(O)C[C@H]2CN(CCc3c([nH]c4ccccc34)[C@@](C(=O)OC)(c3cc4c(cc3OC)N(C=O)[C@H]3[C@@](O)(C(=O)OC)[C@H](OC(C)=O)[C@]5(CC)C=CCN6CC[C@]43[C@@H]65)C2)C1 [Vincristine Sulfate] | 42 ± 1.8 | 37.1 ± 4.2 | 41.7 ± 0.87 | 38.6 ± 0.59 | 37 ± 0.55 | 33.5 ± 1.3 | 48.3 ± 0.14 | 38 ± 0.93 | 33.5 ± 0.55 | 30.4 ± 0.59 | 27.1 ± 1.3 | 21.9 ± 0.84 |
| COc1ccnc2[nH]cc(C(=O)C(=O)N3CCN(C(=O)c4ccccc4)C[C@H]3C)c12 | 105 ± 6.5 | 106 ± 3.8 | 111 ± 2.5 | 107 ± 2.7 | 86 ± 1.2 | 88.5 ± 5.7 | 112 ± 3.3 | 112 ± 1.2 | 108 ± 1.6 | 103 ± 1.8 | 106 ± 1.2 | 115 ± 1.5 |
| CN1CC(=O)N2[C@H](c3ccc4c(c3)OCO4)c3[nH]c4ccccc4c3C[C@@H]2C1=O [Tadalafil (Cialis)] | 107.45 ± 0.0089 | 97.8 ± 3.3 | 107 ± 4.8 | 101 ± 2 | 94.3 ± 2.4 | 107.7 ± 0.44 | 91.2 ± 1.9 | 92.87 ± 0.31 | 102.7 ± 0.92 | 92.11 ± 0.35 | 96.51 ± 0.38 | 101 ± 2 |
| CC(NCCc1ccc(O)cc1)C(O)c1ccc(O)cc1 (stereo not given) [Ritodrine HCl] | 110 ± 1.6 | 112.1 ± 0.64 | 101 ± 2.7 | 100 ± 1.3 | 100 ± 1.4 | 102 ± 6.3 | 100 ± 5 | 98 ± 2.1 | 102 ± 2.8 | 98.2 ± 6.2 | 97.3 ± 6.2 | 86.5 ± 1.5 |
| Cn1cc(C2=C(c3ccc(Cl)cc3Cl)C(=O)NC2=O)c2ccccc21 | 107.48 ± 0.025 | 103 ± 2.8 | 98.2 ± 1.1 | 90.4 ± 5.3 | 96.83 ± 0.6 | 97.5 ± 1.9 | 77.6 ± 1.8 | 84.2 ± 1.4 | 89.8 ± 2.4 | 92.5 ± 5.7 | 80.2 ± 1.9 | 76.2 ± 6.7 |
| CS(=O)(=O)CCNCc1ccc(-c2ccc3ncnc(Nc4ccc(OCc5cccc(F)c5)c(Cl)c4)c3c2)o1 [Lapatinib Ditosylate] | 102.2 ± 0.43 | 100 ± 1.8 | 110 ± 2.3 | 101.41 ± 0.072 | 103 ± 2.5 | 82.9 ± 3.4 | 97.35 ± 0.2 | 96.4 ± 3.8 | 104 ± 1.5 | 101 ± 3.3 | 99.1 ± 4 | 48.9 ± 1.6 |
| CC(C)NCC(O)c1ccc(O)c(O)c1 (stereo not given) [Isoprenaline HCl] | 103 ± 4.7 | 99.5 ± 2.4 | 102 ± 1.1 | 95.5 ± 4.2 | 94.6 ± 2.4 | 98.26 ± 0.6 | 95.6 ± 2 | 88 ± 5.3 | 91.5 ± 1.7 | 94.2 ± 6.9 | 91.3 ± 2.6 | 83.3 ± 1.6 |
| Cc1c(CN2CCN(C(=O)[C@H](C)O)CC2)sc2c(N3CCOCC3)nc(-c3cnc(N)nc3)nc12 [GDC-0980 (RC7422)] | 101 ± 1.1 | 114 ± 1.6 | 99.9 ± 1.4 | 89.64 ± 0.5 | 39.1 ± 1 | 23.3 ± 0.98 | 100.8 ± 0.26 | 98.64 ± 0.9 | 91.5 ± 5.1 | 75.5 ± 4.4 | 35.3 ± 2.2 | 30.2 ± 2 |
| CC(C)NCC(O)c1ccc(NS(C)(=O)=O)cc1 (stereo not given) [Sotalol HCl] | 79.7 ± 5.2 | 99.6 ± 3.7 | 108.1 ± 1 | 115 ± 6.1 | 114 ± 2.9 | 107 ± 6.9 | 92 ± 1.4 | 115 ± 2 | 113 ± 1.3 | 118 ± 5.8 | 118 ± 1.5 | 108 ± 1.7 |
| CN1CC2c3ccccc3Oc3ccc(Cl)cc3C2C1 (stereo not given) [Asenapine maleate] | 110 ± 1.5 | 105.4 ± 0.74 | 106.4 ± 0.12 | 105 ± 5.3 | 110 ± 3.4 | 89.34 ± 0.58 | 110 ± 0.8 | 113 ± 3.3 | 110.6 ± 0.71 | 112 ± 5 | 103 ± 3.5 | 88.47 ± 0.57 |
| COc1ccc2c3n(c(=NC(=O)c4cccnc4)nc2c1OC)CCN3 [PIK-90] | 85.1 ± 3.9 | 107 ± 4.7 | 110 ± 2.5 | 112 ± 1.5 | 110 ± 1.3 | 96.7 ± 1.5 | 99 ± 1.5 | 99.75 ± 0.35 | 97.73 ± 0.84 | 97.82 ± 0.96 | 97.97 ± 0.66 | 73.4 ± 6.5 |
